Test results from US11427548B2 (Arvinas Operations, Inc., priority 2015, dated 2022).
Read-outs that look alike come from different tables or passages of the source. Blank lines part the entries; values can stand above or below the compound they belong to.

Target: T1, Androgen Receptor (Homo sapiens, UniProt P10275)
T1 construct: endogenous in cells; host or cells: VCaP cells
T1 sequence (P10275 1-920): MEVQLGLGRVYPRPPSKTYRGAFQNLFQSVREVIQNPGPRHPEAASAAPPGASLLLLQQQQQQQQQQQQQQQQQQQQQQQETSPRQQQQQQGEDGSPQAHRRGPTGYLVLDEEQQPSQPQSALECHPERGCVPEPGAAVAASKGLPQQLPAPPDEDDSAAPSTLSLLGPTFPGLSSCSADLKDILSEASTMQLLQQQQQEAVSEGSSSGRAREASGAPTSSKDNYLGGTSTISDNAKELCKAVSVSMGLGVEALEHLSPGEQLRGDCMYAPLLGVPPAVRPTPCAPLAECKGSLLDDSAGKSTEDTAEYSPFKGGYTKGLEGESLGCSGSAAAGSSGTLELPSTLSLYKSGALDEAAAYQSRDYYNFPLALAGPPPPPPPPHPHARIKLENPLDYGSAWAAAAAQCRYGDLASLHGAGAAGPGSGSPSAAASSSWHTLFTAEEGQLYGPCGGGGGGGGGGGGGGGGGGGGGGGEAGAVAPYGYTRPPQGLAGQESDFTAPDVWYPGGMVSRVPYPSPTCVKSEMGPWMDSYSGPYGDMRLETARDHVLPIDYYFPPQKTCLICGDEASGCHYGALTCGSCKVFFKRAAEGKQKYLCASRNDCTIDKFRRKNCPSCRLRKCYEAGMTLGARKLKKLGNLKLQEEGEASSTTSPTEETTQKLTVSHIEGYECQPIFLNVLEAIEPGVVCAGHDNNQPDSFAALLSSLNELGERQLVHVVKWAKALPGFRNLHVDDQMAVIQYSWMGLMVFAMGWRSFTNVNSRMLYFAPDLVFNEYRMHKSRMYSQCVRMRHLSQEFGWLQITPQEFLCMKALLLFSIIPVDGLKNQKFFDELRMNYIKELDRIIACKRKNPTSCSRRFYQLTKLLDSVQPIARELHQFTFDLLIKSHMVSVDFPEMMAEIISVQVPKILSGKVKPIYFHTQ
Assay: Androgen Receptor ELISA assay (PathScan AR ELISA) in VCaP cells: AR degradation, Dmax and DC50
Type: cell-based
Method in brief: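 VCaP cells, 30,000/well, grown ≥3 days in phenol red-free RPMI with 5% charcoal-stripped FBS; compound added in 0.1% DMSO with 0.1 nM R1881, 7 half-log doses, 24 h. Lysate AR quantified by PathScan sandwich ELISA, HRP/TMB read at 450 nm, giving DC50 and Dmax.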

[1] = VCaP cells; Table 36; read-out: VCaP DC50
[2] = VCaP, VCaP cells; Table 36; read-out: VCaP Dmax (%)
[3] = VCaP cells; Table 35; read-out: VCaP DC50
[4] = VCaP, VCaP cells; Table 35; read-out: VCaP Dmax (%)
[5] = read-out: VCaP DC50; VCaP cells; Table 34

Structure (SMILES): Cc1ncsc1-c1ccc([C@H](C)NC(=O)[C@@H]2C[C@@H](O)CN2C(=O)[C@@H](NC(=O)CN2CCN(CCCN3CCN(c4ccc(C(=O)N[C@H]5C(C)(C)[C@H](Oc6ccc(C#N)c(Cl)c6)C5(C)C)cn4)CC3)CC2)C(C)(C)C)cc1 [Example 717, N-((1r,3r)-3-(3-chloro-4-cyanophenoxy)-2,2,4,4-tetramethylcyclobutyl)-6-(4-(3-(4-(2-(((S)-1-((2S,4R)-4-hydroxy-2-(((S)-1-(4-(4-methylthiazol-5-yl)phenyl)ethyl)carbam-oyl)pyrrolidin-1-yl)-3,3-dimethyl-1-oxobutan-2-yl)amino)-2-oxoethyl)piperazin-1-yl)propyl)piperazin-1-yl)nicotinamide]
DC50 [1]: < 50 nM | Dmax (VCaP, read-out: VCaP Dmax (%)): 51 to 70%

Structure (SMILES): Cc1ncsc1-c1ccc([C@H](C)NC(=O)[C@@H]2C[C@@H](O)CN2C(=O)[C@@H](c2ncc(CCCN3CCN(c4ccc(C(=O)NC5C(C)(C)C(Oc6ccc(C#N)c(Cl)c6)C5(C)C)cn4)CC3)n2C)C(C)C)cc1 (stereo partly drawn) [Example 701, N-((1r,3r)-3-(3-chloro-4-cyanophenoxy)-2,2,4,4-tetramethylcyclobutyl)-6-(4-(3-(2-((R)-1-((2S,4R)-4-hydroxy-2-(((S)-1-(4-(4-methylthiazol-5-yl)phenyl)ethyl)carbam-oyl)pyrrolidin-1-yl)-3-methyl-1-oxobutan-2-yl)-1-methyl-1H-imidazol-5-yl)propyl)piperazin-1-y)nicotinamide]
VCaP Dmax (%) (VCaP cells; Table 36): + (Dmax ≤ 25%) | DC50 [1]: > 501 nM

Structure (SMILES): Cc1ncsc1-c1ccc([C@H](CO)NC(=O)C2C[C@@H](O)CN2C(=O)C(NC(=O)CN2C3CCC2CN(CCCc2ccc(C(=O)NC4C(C)(C)C(Oc5ccc(C#N)c(Cl)c5)C4(C)C)cc2)C3)C(C)(C)C)cc1 (stereo partly drawn) [Example 828, (2S,4R)-1-((2S)-2-(2-(3-(3-(4-(((1r,3r)-3-(3-chloro-4-cyanophenoxy)-2,2,4,4-tetramethylcyclobutyl)carbamoyl)phenyl)propyl)-3,8-diazabicyclo[3.2.1]octan-8-yl)acetamido)-3,3-dimethylbutanoyl)-4-hydroxy-N-((R)-2-hydroxy-1-(4-(4-methylthiazol-5-yl)phenyl)ethyl) pyrrolidine-2-carboxamide]
Dmax (VCaP, read-out: VCaP Dmax (%)): > 71% | DC50 (read-out: VCaP DC50; VCaP cells; Table 36): < 50 nM

Structure (SMILES): CC(C)(C)[C@H](NC(=O)COCCCOCCCCOc1ccc(N2C(=S)N(c3cc(Cl)c(C#N)cc3F)C(=O)C2(C)C)cc1)C(=O)N1C[C@H](O)C[C@H]1C(=O)NCc1ccc(-c2cnco2)cc1 [Example 369]
DC50 [5]: < 50 nM

Structure (SMILES): Cc1ncoc1-c1ccc(CNC(=O)[C@@H]2C[C@@H](O)CN2C(=O)[C@@H](NC(=O)COCCCOc2ccc(Oc3ccc(N4C(=S)N(c5cnc(C#N)c(C(F)(F)F)c5)C(=O)C4(C)C)cc3)cc2)C(C)(C)C)cc1 [Example 386]
DC50 (VCaP cells; Table 34; read-out: VCaP DC50): < 50 nM | Dmax (VCaP, VCaP cells; Table 34; read-out: VCaP Dmax (%)): > 71%

Structure (SMILES): Cc1ncsc1-c1ccc(CNC(=O)[C@@H]2C[C@@H](O)CN2C(=O)[C@@H](NC(=O)COCCCOCCCCOc2cccc(N3C(=S)N(c4ccc(C#N)c(C(F)(F)F)c4)C(=O)C3(C)C)c2)C(C)(C)C)cc1 [Example 321]
Dmax (VCaP, read-out: VCaP Dmax (%)): 26 to 50% | DC50 [5]: < 50 nM

Second part, the compound after the results:

DC50 [1]: < 50 nM | Dmax [2]: > 71%
Structure (SMILES): Cc1ncsc1-c1ccc([C@H](C)NC(=O)[C@@H]2C[C@@H](O)CN2C(=O)[C@@H](NC(=O)CN2CCN(CCOc3ccc(C(=O)N[C@H]4C(C)(C)[C@H](Oc5ccc(C#N)c(Cl)c5)C4(C)C)cc3)CC2)C(C)(C)C)cc1 [Example 615, (2S,4R)-1-((S)-2-(2-(4-(2-(4-(((1r,3r)-3-(3-chloro-4-cyanophenoxy)-2,2,4,4-tetramethylcyclobutyl)carbamoyl)phenoxy)eth-yl)piperazin-1-yl)acetamido)-3,3-dimethylbutanoyl)-4-hydroxy-N-((S)-1-(4-(4-methylthiazol-5-yl)phenyl)ethyl)pyrrolidine-2-carboxamide]

Dmax (VCaP, highest percentage of Androgen Receptor degradation observed, VCaP cells (Table 32); read-out: VCaP Dmax (%)): > 71% | DC50 (concentration that caused 50% Androgen Receptor degradation, VCaP cells (Table 32); read-out: VCaP DC50): < 50 nM
Structure (SMILES): Cc1ncoc1-c1ccc(CNC(=O)[C@@H]2C[C@@H](O)CN2C(=O)[C@@H](NC(=O)COCCOc2ccc(-c3ccc(C(=O)N[C@H]4C(C)(C)[C@H](Oc5ccc(C#N)c(Cl)c5)C4(C)C)cc3)cc2)C(C)(C)C)cc1 [Example 181]

DC50 [3]: < 50 nM | Dmax [4]: 51 to 70%
Structure (SMILES): Cc1ncsc1-c1ccc(CNC(=O)[C@@H]2C[C@@H](O)CN2C(=O)[C@@H](NC(=O)CNCCNc2ccc(-c3ccc(C(=O)N[C@H]4C(C)(C)[C@H](Oc5ccc(C#N)c(Cl)c5)C4(C)C)cc3)cn2)C(C)(C)C)cc1 [Example 484]

DC50 [1]: > 501 nM | Dmax (VCaP, read-out: VCaP Dmax (%), VCaP cells; Table 36): < 25%
Structure (SMILES): CC(C)C[C@H](OCCN1CCN(c2ccc(C(=O)N[C@H]3C(C)(C)[C@H](Oc4ccc(C#N)c(Cl)c4)C3(C)C)cn2)CC1)C(=O)N[C@@H](C)C(=O)N1C[C@H](O)C[C@H]1C(=O)NCc1ccc(Cl)cc1 [Example 722, N-((1r,3r)-3-(3-chloro-4-cyanophenoxy)-2,2,4,4-tetramethylcyclobutyl)-6-(4-(2-(((S)-1-(((S)-1-((2S,4R)-2-((4-chlorobenzyl)carbamoyl)-4-hydroxypyrrolidin-1-yl)-1-oxopropan-2-yl)amino)-4-methyl-1-oxopentan-2-yl)oxy)ethyl)piperazin-1-yl)nicotinamide]

DC50 [1]: < 50 nM | Dmax [2]: 51 to 70%
Structure (SMILES): Cc1ncsc1-c1ccc([C@H](C)NC(=O)[C@@H]2C[C@@H](O)CN2C(=O)[C@@H](NC(=O)CN2CCN(CCCc3ccc(C(=O)N[C@H]4C(C)(C)[C@H](Oc5ccc(C#N)c(C(F)(F)F)c5)C4(C)C)cc3)CC2)C(C)(C)C)cc1 [Example 665, (2S,4R)-1-((S)-2-(2-(4-(3-(4-(((1r,3r)-3-(4-cyano-3-(trifluoromethyl)phenoxy)-2,2,4,4-tetramethylcyclobutyl)carbamoyl)phenyl)propyl)piperazin-1-yl)acetamido)-3,3-dimethylbutanoyl)-4-hydroxy-N-((S)-1-(4-(4-methylthiazol-5-yl)phenyl)ethyl)pyrrolidine-2-carboxamide]

DC50 [1]: 51 to 500 nM | Dmax [2]: 51 to 70%
Structure (SMILES): Cc1ncsc1-c1ccc([C@H](C)NC(=O)[C@@H]2C[C@@H](O)CN2C(=O)[C@@H](NC(=O)CCCCCCCCc2ccc(C(=O)N[C@H]3C(C)(C)[C@H](Oc4ccc(C#N)c(Cl)c4)C3(C)C)cc2)C(C)(C)C)cc1 [Example 756, (2S,4R)-1-((S)-2-(9-(4-(((1r,3r)-3-(3-chloro-4-cyanophenoxy)-2,2,4,4-tetramethylcyclobutyl)carbamoyl)phenyl)nonan-amido)-3,3-dimethylbutanoyl)-4-hydroxy-N-((S)-1-(4-(4-methylthiazol-5-yl)phenyl)ethyl)pyrrolidine-2-carboxamide]

DC50 [1]: < 50 nM | Dmax [2]: 51 to 70%
Structure (SMILES): Cc1ncsc1-c1ccc(CNC(=O)[C@@H]2C[C@@H](O)CN2C(=O)[C@@H](NC(=O)COCCN2C[C@H]3C[C@@H]2CN3c2ccc(C(=O)N[C@H]3C(C)(C)[C@H](Oc4ccc(C#N)c(Cl)c4)C3(C)C)cn2)C(C)(C)C)cc1 [Example 669, N-((1r,3R)-3-(3-chloro-4-cyanophenoxy)-2,2,4,4-tetramethylcyclobutyl)-6-((1R,4R)-5-(2-(2-(((S)-1-((2S,4R)-4-hydroxy-2-((4-(4-methylthiazol-5-yl)benzyl)carbamoyl)pyrrolidin-1-yl)-3,3-dimethyl-1-oxobutan-2-yl)amino)-2-oxoethoxy)ethyl)-2,5-diazabicyclo[2.2.1]hept-an-2-yl)nicotinamide]

DC50 [3]: > 501 nM | Dmax [4]: 26 to 50%
Structure (SMILES): Cc1ncsc1-c1ccc([C@@H](C)NC(=O)[C@@H]2C[C@@H](O)CN2C(=O)[C@@H](NC(=O)COCCCCCNc2ccc(C(=O)N[C@H]3C(C)(C)[C@H](Oc4ccc(C#N)c(Cl)c4)C3(C)C)cc2)C(C)(C)C)cc1 [Example 459]

DC50 [3]: < 50 nM | Dmax [4]: > 71%
Structure (SMILES): C[C@H](NC(=O)[C@@H]1C[C@@H](O)CN1C(=O)[C@@H](NC(=O)COCCCCOc1ccc(C(=O)N[C@H]2C(C)(C)[C@H](Oc3ccc(C#N)c(Cl)c3)C2(C)C)cc1)C(C)(C)C)c1ccc(Cl)cc1 [Example 572]
